Measured values from patent US6028170A, “Analogs of hirudin” (Baxter International Inc., priority 1998, dated 2000).

Molecular target: T1, human alpha-thrombin (Homo sapiens, UniProt P00734)
T1 construct: were reacted with 1.3 picomoles of human alpha-thrombin
Assay: Thrombin inhibition, residual amidolysis of chromogenic substrate S-2238
Type: biochemical
Conditions: 0.13-1.3 picomoles hirudin with 1.3 picomoles human alpha-thrombin, 0.05 M Tris-HCl pH 7.4, 0.1% BSA, 1 hour at 22° C.
Experimental: Aliquots of the supernatants were diluted with the Tris-BSA buffer and the reaction initiated by addition of S-2238. Reaction velocities were monitored at 410 nanometers and used to determine thrombin activity. Moles of hirudin analog and its derivatives in each assay were determined by radioiodinated hirudin analog tracer.

- Thrombin Inhibition (Specific Activity: % of H-Tyr): 100 % of H-Tyr
Substance: rHV2 Phe^3 Gln^33 Tyr^35 Lys^47 Asp^63 [H-Tyr]
